Test results reported in the NIST ThermoML archive (doi:10.1021/je034087q).
± gives the expanded uncertainty stated by the source.

Test: xn = mol fraction of the nth substance listed

CCCCC [pentane] + O=C=O
Details	mass density [kg/m3]
312.35 K, 7770 kPa, Fluid (supercritical or subcritical phases), x2 = 0.96	475 ± 3
312.35 K, 7780 kPa, Fluid (supercritical or subcritical phases), x2 = 0.96	479 ± 3
312.35 K, 7790 kPa, Fluid (supercritical or subcritical phases), x2 = 0.96	482 ± 3
312.35 K, 7800 kPa, Fluid (supercritical or subcritical phases), x2 = 0.96	488 ± 3
312.35 K, 7810 kPa, Fluid (supercritical or subcritical phases), x2 = 0.96	491 ± 3
312.35 K, 7840 kPa, Fluid (supercritical or subcritical phases), x2 = 0.96	501 ± 3
312.35 K, 7870 kPa, Fluid (supercritical or subcritical phases), x2 = 0.96	511 ± 3
312.35 K, 7890 kPa, Fluid (supercritical or subcritical phases), x2 = 0.96	522 ± 3
312.35 K, 7920 kPa, Fluid (supercritical or subcritical phases), x2 = 0.96	532 ± 3
312.35 K, 7970 kPa, Fluid (supercritical or subcritical phases), x2 = 0.96	544 ± 3
312.35 K, 8010 kPa, Fluid (supercritical or subcritical phases), x2 = 0.96	556 ± 3
312.35 K, 8070 kPa, Fluid (supercritical or subcritical phases), x2 = 0.96	568 ± 4
312.35 K, 8150 kPa, Fluid (supercritical or subcritical phases), x2 = 0.96	581 ± 4
312.35 K, 8230 kPa, Fluid (supercritical or subcritical phases), x2 = 0.96	594 ± 4
312.35 K, 8360 kPa, Fluid (supercritical or subcritical phases), x2 = 0.96	608 ± 4
312.35 K, 8530 kPa, Fluid (supercritical or subcritical phases), x2 = 0.96	624 ± 4
312.35 K, 8740 kPa, Fluid (supercritical or subcritical phases), x2 = 0.96	639 ± 4
312.35 K, 9020 kPa, Fluid (supercritical or subcritical phases), x2 = 0.96	656 ± 4
312.35 K, 9400 kPa, Fluid (supercritical or subcritical phases), x2 = 0.96	674 ± 4
312.35 K, 9600 kPa, Fluid (supercritical or subcritical phases), x2 = 0.96	686 ± 4
315.55 K, 7940 kPa, Fluid (supercritical or subcritical phases), x2 = 0.947	466 ± 3
315.55 K, 7960 kPa, Fluid (supercritical or subcritical phases), x2 = 0.947	472 ± 3
315.55 K, 7970 kPa, Fluid (supercritical or subcritical phases), x2 = 0.947	475 ± 3
315.55 K, 8010 kPa, Fluid (supercritical or subcritical phases), x2 = 0.947	484 ± 3
315.55 K, 8040 kPa, Fluid (supercritical or subcritical phases), x2 = 0.947	492 ± 3
315.55 K, 8070 kPa, Fluid (supercritical or subcritical phases), x2 = 0.947	502 ± 3
315.55 K, 8110 kPa, Fluid (supercritical or subcritical phases), x2 = 0.947	512 ± 3
315.55 K, 8150 kPa, Fluid (supercritical or subcritical phases), x2 = 0.947	522 ± 3
315.55 K, 8200 kPa, Fluid (supercritical or subcritical phases), x2 = 0.947	532 ± 3
315.55 K, 8250 kPa, Fluid (supercritical or subcritical phases), x2 = 0.947	543 ± 3
315.55 K, 8320 kPa, Fluid (supercritical or subcritical phases), x2 = 0.947	555 ± 3
315.55 K, 8390 kPa, Fluid (supercritical or subcritical phases), x2 = 0.947	566 ± 4
315.55 K, 8490 kPa, Fluid (supercritical or subcritical phases), x2 = 0.947	578 ± 4
315.55 K, 8610 kPa, Fluid (supercritical or subcritical phases), x2 = 0.947	592 ± 4
315.55 K, 8760 kPa, Fluid (supercritical or subcritical phases), x2 = 0.947	605 ± 4
315.55 K, 8970 kPa, Fluid (supercritical or subcritical phases), x2 = 0.947	620 ± 4
315.55 K, 9200 kPa, Fluid (supercritical or subcritical phases), x2 = 0.947	635 ± 4
315.55 K, 9520 kPa, Fluid (supercritical or subcritical phases), x2 = 0.947	650 ± 4
315.55 K, 9940 kPa, Fluid (supercritical or subcritical phases), x2 = 0.947	666 ± 4
315.55 K, 10200 kPa, Fluid (supercritical or subcritical phases), x2 = 0.947	676 ± 4
315.55 K, 10490 kPa, Fluid (supercritical or subcritical phases), x2 = 0.947	684 ± 4
315.55 K, 10840 kPa, Fluid (supercritical or subcritical phases), x2 = 0.947	695 ± 4
315.55 K, 11480 kPa, Fluid (supercritical or subcritical phases), x2 = 0.947	711 ± 4
318.15 K, 7980 kPa, Fluid (supercritical or subcritical phases), x2 = 0.901	590 ± 4
318.15 K, 8070 kPa, Fluid (supercritical or subcritical phases), x2 = 0.901	594 ± 4
318.15 K, 8170 kPa, Fluid (supercritical or subcritical phases), x2 = 0.901	600 ± 4
318.15 K, 8280 kPa, Fluid (supercritical or subcritical phases), x2 = 0.901	606 ± 4
318.15 K, 8380 kPa, Fluid (supercritical or subcritical phases), x2 = 0.901	613 ± 4
318.15 K, 8520 kPa, Fluid (supercritical or subcritical phases), x2 = 0.901	619 ± 4
318.15 K, 8660 kPa, Fluid (supercritical or subcritical phases), x2 = 0.901	625 ± 4
318.15 K, 8810 kPa, Fluid (supercritical or subcritical phases), x2 = 0.901	631 ± 4
318.15 K, 8980 kPa, Fluid (supercritical or subcritical phases), x2 = 0.901	638 ± 4
318.15 K, 9180 kPa, Fluid (supercritical or subcritical phases), x2 = 0.901	644 ± 4
318.15 K, 9400 kPa, Fluid (supercritical or subcritical phases), x2 = 0.901	651 ± 4
318.15 K, 9440 kPa, Fluid (supercritical or subcritical phases), x2 = 0.901	654 ± 4
318.15 K, 9550 kPa, Fluid (supercritical or subcritical phases), x2 = 0.901	656 ± 4
318.15 K, 9720 kPa, Fluid (supercritical or subcritical phases), x2 = 0.901	661 ± 4
318.15 K, 9910 kPa, Fluid (supercritical or subcritical phases), x2 = 0.901	666 ± 4
318.15 K, 10010 kPa, Fluid (supercritical or subcritical phases), x2 = 0.901	669 ± 4
318.15 K, 10130 kPa, Fluid (supercritical or subcritical phases), x2 = 0.901	670 ± 4
318.15 K, 10260 kPa, Fluid (supercritical or subcritical phases), x2 = 0.901	674 ± 4
318.15 K, 10370 kPa, Fluid (supercritical or subcritical phases), x2 = 0.901	677 ± 4
318.15 K, 10560 kPa, Fluid (supercritical or subcritical phases), x2 = 0.901	680 ± 4
318.15 K, 10680 kPa, Fluid (supercritical or subcritical phases), x2 = 0.901	683 ± 4
318.15 K, 10880 kPa, Fluid (supercritical or subcritical phases), x2 = 0.901	685 ± 4
318.15 K, 11070 kPa, Fluid (supercritical or subcritical phases), x2 = 0.901	689 ± 4
318.15 K, 11290 kPa, Fluid (supercritical or subcritical phases), x2 = 0.901	694 ± 4
318.15 K, 11490 kPa, Fluid (supercritical or subcritical phases), x2 = 0.901	697 ± 4
318.15 K, 11650 kPa, Fluid (supercritical or subcritical phases), x2 = 0.901	698 ± 4
318.15 K, 11890 kPa, Fluid (supercritical or subcritical phases), x2 = 0.901	702 ± 4
318.15 K, 12110 kPa, Fluid (supercritical or subcritical phases), x2 = 0.901	705 ± 4
318.15 K, 12380 kPa, Fluid (supercritical or subcritical phases), x2 = 0.901	710 ± 4
318.15 K, 12600 kPa, Fluid (supercritical or subcritical phases), x2 = 0.901	713 ± 4
318.15 K, 12940 kPa, Fluid (supercritical or subcritical phases), x2 = 0.901	716 ± 4
318.15 K, 13280 kPa, Fluid (supercritical or subcritical phases), x2 = 0.901	722 ± 5
318.15 K, 13690 kPa, Fluid (supercritical or subcritical phases), x2 = 0.901	727 ± 5
318.15 K, 13870 kPa, Fluid (supercritical or subcritical phases), x2 = 0.901	728 ± 5
318.15 K, 14050 kPa, Fluid (supercritical or subcritical phases), x2 = 0.901	732 ± 5
318.15 K, 14410 kPa, Fluid (supercritical or subcritical phases), x2 = 0.901	734 ± 5
318.15 K, 14620 kPa, Fluid (supercritical or subcritical phases), x2 = 0.901	736 ± 5
318.15 K, 14900 kPa, Fluid (supercritical or subcritical phases), x2 = 0.901	738 ± 5
318.15 K, Liquid, Other PVT measurement, x2 = 0.901	585 ± 2
323.15 K, 2500 kPa, Fluid (supercritical or subcritical phases), x2 = 0.214	607 ± 4
